The values below come from article PMC5968561, “An effective strategy for recapitulating N-terminal heptad repeat trimers in enveloped virus surface glycoproteins for therapeutic applications” (Chemical Science, 2015).

For one series, the system named is HIV-1BaL. The format is cell-based.
For series [1], the system named is HIV-1 NL4-3 (36G)V38A/N42T. Conditions: read-out: EC50, NL4-3 mutant (36G)V38A/N42T; T20-resistant strain; triplicate, mean ± SD.
In series [2] the test system is HIV-1 NL4-3 (36G)V38E/N42S. Conditions: read-out: EC50, NL4-3 mutant (36G)V38E/N42S; T20-resistant strain; triplicate, mean ± SD.
In a further series the test system is HIV-1 NL4-3 (36G)V38A. Conditions: read-out: EC50, NL4-3 mutant (36G)V38A; T20-resistant strain; triplicate, mean ± SD.
The subject of a further series is US4/GS 007 (B, R5). The series can be described thus: Infection by primary HIV-1 isolate, p24 ELISA. The format is cell-based. Conditions: CEMx174 5.25M7 cells, 100 TCID50, p24 ELISA day 7; triplicate, mean ± SD; read-out: EC50 for inhibiting US4/GS 007 (B, R5). Here is the method: (§1) HIV-1 infection assay. To measure the inhibitory activity of the peptides on infection of R5 primary HIV-1 isolates, US4/GS 007 (subtype B), 93IN101 (subtype C), and 92TH009 (subtype A/E), 50 µl of an inhibitor at graded concentration in triplicate was incubated with the same volume of a primary HIV-1 isolate at 100 TCIID50 at 37 °C for 30 min, followed by addition of 100 µl of CEMx174 5.25M7 cells (5×10^5/ml). After incubation at 37 °C overnight, the culture medium was replaced with fresh medium without inhibitor. On day 7 postinfection, the culture supernatants were collected for measuring p24 by ELISA, and the percent inhibition and EC50 values were calculated using Calcusyn

In a further series the test system is 92TH009 (A/E, R5). The series can be described thus: Infection by primary HIV-1 isolate, p24 ELISA. The format is cell-based. Conditions: CEMx174 5.25M7 cells, 100 TCID50, p24 ELISA day 7; triplicate, mean ± SD; read-out: EC50 for inhibiting 92TH009 (A/E, R5). How it is done: as §1
Another series relates to HIV-1IIIB. The format is cell-based.
In the next series the test system is 93IN101 (C, R5). Format: cell-based, HIV-1. How it is done: as §1
Series [3] concerns HIV-1 Env-mediated cell–cell fusion. Conditions: read-out: EC50 for inhibiting cell–cell fusion; HL2/3 and TZM-bl cells coincubated 6–8 h, 37°C, luciferase; triplicate, mean ± SD.
Description: Cell-cell fusion assay. Cell-cell fusion assays were performed as described previously.1 HL2/3 cells, which stably
express HIV Gag, Env, Tat, Rev, and Nef proteins, as well as TZM-bl cells, which stably express large amounts of CD4
and CCR5, were obtained from the NIH AIDS Reference and Reagent Program (contributed by Drs. Barbara Felber and
George Pavlakis and Drs. John C. Kappes and Xiaoyun Wu, respectively). TZM-bl cells (2.5 × 10^4/well) and HL2/3 cells
(7.5 × 10^4/well) were coincubated in 96-well plates (Corning Costar) at 37°C in 5% CO2 in the presence of different
concentrations of inhibitors. After incubation for 6–8 h, the medium was aspirated, the cells were washed and lysed, and
luciferase activity was measured using the Luciferase Assay System (Promega, Madison, WI) on a SpectraMax M5 plate
reader (Molecular Devices, Sunnyvale, CA).
In a further series the test system is HIV-1 NL4-3(D36G). Briefly: Activity against T20-sensitive strain. The format is cell-based. Conditions: triplicate, mean ± SD, read-out: EC50, NL4-3 mutant D36G.
Another series can be described thus: Cytotoxicity, XTT assay. Conditions: human, MT-2 cells, 4 days at 37°C, triplicate, mean ± SD. Format: cell-based.
Series [4] in a line: Sedimentation velocity analysis (SVA). Also on record: Sedimentation coefficient: unit not given here. The format is physicochemical. Conditions: 120 μM in PBS pH 7.4, 60,000 rpm, 20 °C. Here is the method:
Sedimentation velocity analysis (SVA). All measurements were performed on a ProteomelabTMXL-A/XL-I analytical ultracentrifuge (Beckman Coulter, Fullerton, CA, USA) at 20 °C, as described previously. In brief, three-channel cells were used with an An-60 Tirotor. Lyophilized N-peptides were resuspended in ddH2O (pH 7.0) at ~1 mg/mL. The individual proteins and their mixtures with an equimolar amount of C34 peptide were prepared in PBS and incubated at 37 °C for 30 min. All samples were prepared at a final concentration of 120 μM and were initially scanned at 3000 rpm for 10 min to identify the appropriate wavelength for data collection. Data were collected at 60,000 rpm at a wavelength […]
of 280 nm. […]

Series [5] is described as follows: Metabolic stability in rat plasma. The format is in vitro ADME. Conditions: 10 μg/mL, LC-MS/MS, compared with T20. Here is the method: (§2) Tricine-sodium dodecyl sulfate-polyacrylamide gel electrophoresis (Tricine-SDS-PAGE). Polyacrylamide gels (12%) and a BayGene Mini Cell were used for Tricine-SDS-PAGE. The cathode buffer consisted of 0.1 M Tricine, 0.1 M Tris, and 1% SDS, and the anode buffer was 0.2 M Tris. After incubation at 37 °C for 0–24 h, the samples were mixed with Tris-SDS-glycine sample buffer (Invitrogen, Carlsbad, CA) at a ratio of 1:1 and then loaded onto the gels (20 μL/well). Gel electrophoresis was first carried out at a constant voltage of 60 V at room temperature for 1 h and then carried out at a constant voltage of 120 V at room temperature for 2 h. The gel was then stained with Bio-Rad Bio-Safe […]
(§3) Binding assays by size-exclusion chromatography. C34 was mixed with N-peptides (final concentration = 0.20 mM) at a molar ratio of 1:1 in PBS (pH 7.4) and incubated at 37 °C for 30 min. The peptide or peptide mixture (20 μL) was applied to a Phenomenex BioSep-SEC-s2000, 300 mm × 7.80 mm HPLC column equilibrated with PBS (pH 7.4) and eluted at 0.6 mL/min, and the fractions were monitored at 210 nm. Column pressure was 3.5 Mpa.
(§4) Qualification assay. Chromatographic analyses were performed using an ODS-C8 column (5 μm, 100 mm × 2.0mm ID) kept at ambient temperature. The mobile phase was composed of acetonitrile-water-formic acid in the ratio of 60:40:0.1 (v/v/v) at a flow rate of 0.3 mL/min. […]

Series [6] is described as follows: Metabolic stability in kidney homogenate. Conditions: SD rat, pooled from 3 rats, 4 mL Tris–HCl 50 mM pH 7.4 per g, 9,000 g supernatant, 10 μg/mL, 37°C, 0-120 min, LC-MS/MS, compared with T20. The format is in vitro ADME.
A short description of series [7]: Metabolic stability in liver homogenate. Format: in vitro ADME. Conditions: SD rat, pooled from 3 rats, 4 mL Tris–HCl 50 mM pH 7.4 per g, 9,000 g supernatant, 10 μg/mL, 37°C, 0-120 min, LC-MS/MS, compared with T20.
Series [8] in a line: CD spectroscopy and CD thermal denaturation. Format: physicochemical. Conditions: 10 μM peptide in PBS pH 7.4. An excerpt:
software as described above. 2
Circular dichroism (CD) spectroscopy.

A further series deals with proteinase K (Parengyodontium album, UniProt P06873). The series can be described thus: Metabolic stability in proteinase K solution. Format: in vitro ADME. Conditions: 10 μg/mL, LC-MS/MS, compared with T20. Here is the method: as §2, §3, §4
[9] abbreviates: triplicate, mean ± SD, read-out: EC50 for inhibiting HIV-1BaL infection.
Where [10] appears, read: triplicate, mean ± SD, read-out: EC50 for inhibiting HIV-1IIIB infection.
The mark [11] stands for this setting: CEMx174 5.25M7 cells, 100 TCID50, p24 ELISA day 7, triplicate, mean ± SD, read-out: EC50 for inhibiting 93IN101 (C, R5).

Where two headings read alike, the source gives them in different places. Positions of bridges follow the written chain, without caps; N, C: chain ends. Chains are numbered I, II in the order given.

Sequence of proteinase K (P06873 106-384): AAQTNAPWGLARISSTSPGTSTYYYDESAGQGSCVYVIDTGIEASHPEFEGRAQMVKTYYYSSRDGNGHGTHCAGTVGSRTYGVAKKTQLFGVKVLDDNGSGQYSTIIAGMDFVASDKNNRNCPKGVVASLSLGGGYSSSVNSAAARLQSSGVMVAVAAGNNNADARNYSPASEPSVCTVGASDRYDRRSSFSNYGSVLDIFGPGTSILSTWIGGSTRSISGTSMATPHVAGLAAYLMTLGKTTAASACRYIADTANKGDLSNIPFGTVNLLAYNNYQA

Enfuvirtide: the EC50 is 34.1 ± 9.4 nM in the series with HIV-1BaL; 539 ± 33 nM in series [1]; over 2000 nM in series [2]; 620 ± 103 nM in the series with HIV-1 NL4-3 (36G)V38A; 20.4 ± 2.9 nM with US4/GS 007 (B, R5); 19 ± 0.5 nM in the series on 92TH009 (A/E, R5). The EC50 in the series on HIV-1IIIB was 57.8 ± 3.2 nM; in the series on 93IN101 (C, R5) it was 22.1 ± 0.9 nM; in [3] it was 1.2 ± 0.01 nM.
For “I: Ac-SEIVKKINNIERAIEAQQHLLQLTVWGIKQLQARIL-NH2 / II: Ac-SEIVKKINNIERAIEAQQHLLQLTVWGIKQLQARIL-NH2 / III: Ac-SEIVKKINNIERAIEAQQHLLQLTVWGIKQLQARIL-NH2 (amide I:6-III:11, I:11-II:6, II:11-III:6) [(N36MEK1)3]”, the EC50 was 74.3 ± 6.5 nM with HIV-1BaL (setting [9]); 71 ± 6.1 nM in [1]; 22.2 ± 2.8 nM in series [2]; 106 ± 16 nM with HIV-1 NL4-3(D36G); 126 ± 31 nM in the series with HIV-1 NL4-3 (36G)V38A; 29.2 ± 11.2 nM in the series on US4/GS 007 (B, R5). The EC50 in the series on 92TH009 (A/E, R5) turned out to be 14.5 ± 4.1 nM; in the series on HIV-1IIIB (setting [10]), 11.2 ± 4.9 nM; in the series on 93IN101 (C, R5) (setting [11]), 20.1 ± 5.6 nM; in series [3] it was 59 ± 8.7 nM. This substance also returned a CC50 at 96 h in “Cytotoxicity, XTT assay” of 17300 ± 1600 nM.
Regarding “I: Ac-SEIVKKINNIERAIEAQQKLLQLTVWGIKQLQARIL-NH2 / II: Ac-SEIVKKINNIERAIEAQQKLLQLTVWGIKQLQARIL-NH2 / III: Ac-SEIVKKINNIERAIEAQQKLLQLTVWGIKQLQARIL-NH2 (amide I:6-III:11, I:11-II:6, II:11-III:6) [(N36MEK2)3]”, the EC50 with HIV-1BaL (setting [9]) is 20.4 ± 2.5 nM; in [1], 8.1 ± 1.2 nM; in series [2], 4.9 ± 2.9 nM; in the series on HIV-1 NL4-3(D36G) it was 19.4 ± 1.9 nM; in the series on HIV-1 NL4-3 (36G)V38A, 21.7 ± 2.3 nM; with US4/GS 007 (B, R5), 7.1 ± 2.5 nM. Further, the EC50 came to 1.5 ± 0.6 nM with 92TH009 (A/E, R5); 4.7 ± 0.6 nM with HIV-1IIIB (setting [10]); 5.2 ± 0.9 nM in the series on 93IN101 (C, R5) (setting [11]); 27.1 ± 2.5 nM in [3]. Further, the CC50 at 96 h in the series “Cytotoxicity, XTT assay” stood at 18900 ± 2600 nM.
Take “I: Ac-SGIVQKINNIERAIEAQQHLLQLTVWGIKQLQARIL-NH2 / II: Ac-SGIVQKINNIERAIEAQQHLLQLTVWGIKQLQARIL-NH2 / III: Ac-SGIVQKINNIERAIEAQQHLLQLTVWGIKQLQARIL-NH2 (amide I:6-III:11, I:11-II:6, II:11-III:6) [(N36M)3]”: the EC50 was 8.6 ± 3.1 nM in the series on HIV-1BaL (setting [9]); 10.2 ± 1.3 nM in series [1]; 6 ± 3.7 nM in series [2]; 20.2 ± 2.7 nM with HIV-1 NL4-3(D36G); 14.5 ± 1.5 nM in the series with HIV-1 NL4-3 (36G)V38A; 9.4 ± 1.2 nM in the series with US4/GS 007 (B, R5). Besides, the EC50 in the series with 92TH009 (A/E, R5) worked out at 1.5 ± 0.1 nM; in the series on HIV-1IIIB (setting [10]) it was 2.67 ± 0.1 nM; with 93IN101 (C, R5) (setting [11]), 5.9 ± 2 nM; in series [3], 4 ± 0.4 nM. Also, in series [4] (280 nm, SEDFIT), the Sedimentation coefficient came to 1.39. Further, the “Observed molecular mass (SVA)” value in series [4] (oligomeric state) turned out to be 12.5 kDa. The same substance had a CC50 at 96 h in “Cytotoxicity, XTT assay” of over 50000 nM. Further, the “Metabolic stability in rat plasma” value in series [5] was “dramatically increased in vitro metabolic stability over T20”. In series [6], the “Metabolic stability in kidney homogenate” value is on record as “dramatically increased in vitro metabolic stability over T20”. In series [7], the “Metabolic stability in liver homogenate” value is listed as “dramatically increased in vitro metabolic stability over T20”. Further, the “Tm (thermal unfolding transition)” value in [8] (CD at 222 nm, 15 to 90 °C at 2 °C/min) was over 90 °C. Also, in series [8] (CD, mean residue ellipticity at 222 nm), the Helicity is reported as 82%. Also, the “Metabolic stability in proteinase K solution” value at proteinase K was “dramatically increased in vitro metabolic stability over T20”.
